The source made the active and inactive calls. No cut-off for these calls is given here.

One test has as its system Escherichia coli. The test is described as follows: Antimicrobial activity against Escherichia coli ATCC 25922 at 0.5 mg/disk by disk diffusion assay. Type of test: functional, organism-based.
The subject of test [1] is Proteus vulgaris. Kind of test: Antimicrobial activity against Proteus vulgaris ATCC 13315 at 0.5 mg/disk by disk diffusion assay. Type of test: functional.
The test system of test [2] is Staphylococcus epidermidis. The test is described as follows: Antimicrobial activity against Staphylococcus epidermidis ATCC 12228 at 0.5 mg/disk by disk diffusion assay. It counts as functional. On the technique in general: Agar diffusion results depend on both activity and mobility in agar.
Test [3] relates to Salmonella typhimurium. Kind of test: Antimicrobial activity against Salmonella Typhimurium ATCC 14028 at 0.5 mg/disk by disk diffusion assay. Type of test: functional, Salmonella enterica subsp. enterica serovar Typhimurium.
For test [4], the system named is Staphylococcus aureus. The test is described as follows: Antimicrobial activity against Staphylococcus aureus ATCC 25923 at 0.5 mg/disk by disk diffusion assay. Type of test: functional.
The next test has as its system Serratia marcescens. Kind of test: Antimicrobial activity against Serratia marcescens ATCC 8100 at 0.1 mg/disk by disk diffusion assay. Type of test: functional.
Test [5] concerns Proteus vulgaris. The test is described as follows: Antimicrobial activity against Proteus vulgaris ATCC 13315 at 0.1 mg/disk by disk diffusion assay. Type of test: functional.
Another test concerns Klebsiella pneumoniae. Kind of test: Antimicrobial activity against Klebsiella pneumoniae ATCC 13883 at 0.1 mg/disk by disk diffusion assay. Type of test: functional.
For test [6], the system named is Staphylococcus epidermidis. The test is described as follows: Antimicrobial activity against Staphylococcus epidermidis ATCC 12228 at 0.1 mg/disk by disk diffusion assay. Type of test: functional.
Test [7] deals with Salmonella typhimurium. Kind of test: Antimicrobial activity against Salmonella Typhimurium ATCC 14028 at 0.1 mg/disk by disk diffusion assay. Type of test: functional, Salmonella enterica subsp. enterica serovar Typhimurium.
Another test relates to Enterobacter cloacae. Kind of test: Antimicrobial activity against Enterobacter cloacae ATCC 23355 at 0.1 mg/disk by disk diffusion assay. It counts as functional.
Test [8] deals with Staphylococcus aureus. The test is described as follows: Antimicrobial activity against Staphylococcus aureus ATCC 25923 at 0.1 mg/disk by disk diffusion assay. It counts as functional.

Turning to `CC/C=C\C/C=C\C/C=C\C/C=C\CCCCC(=O)O`, the outcome in the test on Escherichia coli was Active. The “inhibition zone (IZ)” value (with Proteus vulgaris [1]; in [2]; with Salmonella typhimurium [3]; in the test on Staphylococcus aureus [4]) was >2 mm each time.
On to `O=C(N[C@H](CO)[C@H](O)c1ccc([N+](=O)[O-])cc1)C(Cl)Cl` [CHLORAMPHENICOL], for which the “inhibition zone (IZ)” value in the test with Serratia marcescens is reported as >4 mm.
On to `CN(C)[C@@H]1C(O)=C(C(N)=O)C(=O)[C@@]2(O)C(O)=C3C(=O)c4c(O)cccc4[C@@](C)(O)[C@H]3C[C@@H]12` [TETRACYCLINE], for which the “inhibition zone (IZ)” value in the test on Proteus vulgaris [5] and with Klebsiella pneumoniae was >4 mm throughout.
For the compound `C=CC/C=C\C/C=C\C/C=C\CCCCC(=O)O`, the outcome in the test with Escherichia coli and in the test on Proteus vulgaris [1] was Active. For the same compound, the “inhibition zone (IZ)” value is >2 mm in [2], >4 mm with Salmonella typhimurium [3] and >2 mm in the test with Staphylococcus aureus [4].
Take `CC1(C)S[C@@H]2[C@H](NC(=O)[C@H](N)c3ccccc3)C(=O)N2[C@H]1C(=O)O` [AMPICILLIN]: the “inhibition zone (IZ)” value (in test [6]; in the test on Salmonella typhimurium [7]; in the test on Enterobacter cloacae; in the test on Staphylococcus aureus [8]) was >4 mm throughout.
For the compound `CC/C=C\C/C=C\C/C=C\C/C=C\C/C=C\CCCC(=O)OC/C=C(\C)CCCC(C)CCCC(C)CCCC(C)C` (stereo unspecified), in the test on Proteus vulgaris [1], the result was Active. The “inhibition zone (IZ)” value is >2 mm in [2], >2 mm in the test on Salmonella typhimurium [3] and >4 mm in the test with Staphylococcus aureus [4].

Values taken from ChEMBL document CHEMBL1151628, “Antibacterial constituents of the diatom Navicula delognei” (1984).
